The term melting point denotes the temperature, or range, at which the solid turns liquid. Consider `COc1cc(CC(=O)NC(CC(C)C)c2cc(CC(NC(=O)c3c(Cl)cccc3Cl)C(=O)O)on2)ccc1NC(=O)Nc1ccccc1C` (centres unmarked) [Example 25, 2-(2,6-Dichloro-benzoylamino)-3-[3-(1-{2-[3-methoxy-4-(3-o-tolyl-ureido)-phenyl]-acetylamino}-3-methyl-butyl)-isoxazol-5-yl]-propionic acid], for which the melting point is 102 to 104 °C.

For `COc1cc(CC(=O)NC(CC(C)C)c2cc(CC(NC(C)=O)C(=O)O)on2)ccc1NC(=O)Nc1ccccc1C` (centres unmarked) [Example 27, 2-acetylamino-3-[3-(1-{2-[3-methoxy-4-(3-o-tolyl-ureido)-phenyl]-acetylamino}-3-methyl-butyl)-isoxazol-5-yl]-propionic acid], the melting point lay in the range of 123 to 125 °C.

The values are drawn from patent US6903128B2, “Non-peptidyl inhibitors of VLA-4 dependent cell binding useful in treating inflammatory, autoimmune, and respiratory diseases” (Pfizer Inc, priority 1999, dated 2005).
